Experimental findings from patent US20230303552A1, “ARYLSULFONYL DERIVATIVES AND THEIR USE AS MUSCARINIC ACETYLCHOLINE RECEPTOR M5 INHIBITORS” (Vanderbilt University, priority 2020, published 2023) are described below.

Usually IC50 stands for the concentration needed to halve the response being measured.

Bounds are passed on as bounds.

The target in the test is T1, human M5 receptors (hM5) (Homo sapiens, UniProt P08912).
T1 construct: expressed in transfected cells
T1 sequence (P08912 1-532): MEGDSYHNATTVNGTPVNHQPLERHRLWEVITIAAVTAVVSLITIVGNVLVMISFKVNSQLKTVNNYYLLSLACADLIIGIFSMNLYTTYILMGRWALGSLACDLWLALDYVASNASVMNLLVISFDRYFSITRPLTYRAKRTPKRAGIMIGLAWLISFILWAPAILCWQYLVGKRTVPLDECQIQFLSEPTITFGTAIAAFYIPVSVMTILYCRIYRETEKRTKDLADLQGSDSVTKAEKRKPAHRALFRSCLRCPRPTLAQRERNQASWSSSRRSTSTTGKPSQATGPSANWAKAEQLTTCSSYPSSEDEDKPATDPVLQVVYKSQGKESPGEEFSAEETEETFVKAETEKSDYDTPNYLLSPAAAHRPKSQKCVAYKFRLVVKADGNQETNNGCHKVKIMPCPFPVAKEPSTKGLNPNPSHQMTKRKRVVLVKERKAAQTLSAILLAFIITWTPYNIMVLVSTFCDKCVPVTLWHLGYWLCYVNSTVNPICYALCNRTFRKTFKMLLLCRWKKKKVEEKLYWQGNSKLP
Nature of the test: Cell-based functional calcium mobilization assay of mAChR M5 activity (inhibition of EC80 acetylcholine response) in CHO cells. Conditions: CHO cells stably expressing hM5; for IC50: calcium flux (Fluo-4), EC80 acetylcholine addition; for EC80 MIN: minimum of EC80 acetylcholine response, normalized to maximum acetylcholine response. On the procedure: All functional cell-based assays were performed essentially as previously described (Marlo et al., Mol.Pharm. 2009, 75(3), 577-588; Brady et al., J. Pharm. & Exp. Ther. 2008, 327, 941-953). Initial, single point (10 µM) competitive and non-competitive inhibitor characterization was performed in stable Chinese Hamster Ovary (CHO) cell lines constitutively expressing human M5 receptors. These were plated at 15,000 cells per 20 µL per well in Greiner 384-well black-walled, TC-treated, clear-bottomed plates (Fisher) in Ham’s F12 medium supplemented with 10% FBS and 20 mM HEPES. Cells were incubated overnight at 37° C. under 5% CO2. The following day, medium was exchanged with assay buffer (Hank’s Balanced Salt Solution supplemented with 20 mM HEPES and 2.5 mM Probenecid, pH 7.4) leaving 20 µL of assay buffer in each well. This was followed by the addition of 20 µL of 2.3 µM of Fluo-4 AM (Invitrogen) in assay buffer (final concentration 1.15 µM). The cells were then incubated 50 minutes at 37° C. under 5% CO2. The assay buffer plus dye was then exchanged with fresh assay buffer leaving a volume of 20 µL in each well. Test compounds were diluted into assay buffer to a 2X (20 µM) concentration in 0.2% dimethylsulfoxide (DMSO) in columns 3 - 22 with matching DMSO concentration in columns 1, 2, 23, and […]; compounds were added to the assay for a final concentration of 10 µM and a final DMSO concentration of 0.1%. Acetylcholine (Sigma-Aldrich) was prepared to provide 5X concentrations of EC20, EC80, and ECmax in the triple-addition assay, providing a signal window to view agonism, potentiation, and inhibition of the acetylcholine response as well as a means to normalize to the maximum acetylcholine response.
Either an FDSS (Hamamatsu) or Panoptic (WaveFront Biosciences) kinetic imaging plate reader was used for assay execution and measurement of calcium flux. After establishing baseline fluorescence, test compounds (20 µL) were added to the cells using the reader’s integrated pipettor and allowed to equilibrate for 140 seconds before addition of the EC20 concentration of acetylcholine (10 µL) along with vehicle in selected DMSO-only wells in the outer two columns. The EC80 concentration of acetylcholine (10 µL) was added 125 seconds after the EC20 addition along with ECmax concentration in the wells receiving vehicle in the second addition. The raw fluorescence data from each well was normalized to the corresponding initial fluorescence reading (static ratio). The maximum fluorescence value following each addition was determined and the minimum value within that same timeframe was subtracted for each well then normalized to the average of the ECmax maximum-minimum response, providing a %AChmax value for each addition for each well. The single point values represent mean values determined within the EC80 addition timeframe obtained from at least three independent determinations performed in triplicate or greater (error bars represent +/- SEM) unless otherwise specified.
Further characterization of competitive and non-competitive inhibitor compounds (compound potency and mAChR subtype-selectivity) was performed on the FDSS with calcium mobilization assays performed as previously described (Marlo et al., 2009; Brady et al., 2008) and in a format similar to that described above using the same reagents. CHO cells stably expressing hM1, hM2/Gqi5, hM3, hM4/Gqi5, hM5, rM1, rM2/Gqi5, rM3, rM4/Gqi5, or rMs were plated in the manner described above. A ten-point concentration range of test compound was serial diluted in assay buffer to 2X final concentration and acetylcholine was diluted in assay buffer to 5X of the EC20 and EC80 concentrations, determined empirically and 5X maximal (2 mM final concentration) stock concentrations. FDSS protocols were carried out as described above; the static ratio was calculated and the minimum response subtracted from the maximum response within the timeframe of each addition. […]

In the case of `C[C@@H]1C[C@@H](C(=O)Nc2ccc3scnc3c2)CCN1S(=O)(=O)c1cccc2nsnc12` (racemic) [Compound 121, trans-(rac)-1-(benzo[c][1,2,5]thiadiazol-4-ylsulfonyl-N-(benzo[d]thiazol-5-yl)-2-methylpiperidine-4-carboxamide], the 50% inhibitory concentration (IC50) was 449 nM and the “EC80 MIN” value stood at 3%.
As for `O=C(Nc1ccc2scnc2c1)C1CCN(S(=O)(=O)c2ccccc2F)CC1` [Compound 156, N-(benzo[d]thiazol-5-yl)-1-((2-fluorophcnyl)sulfonyl)piper idine-4-carboxaniide], the IC50 is above 10000 nM and the “EC80 MIN” value stood at 6%.
Consider `O=C(Nc1ccc2scnc2c1)[C@@H]1CCN(S(=O)(=O)c2ccc3ncccc3c2)C1` [Compound 152, (R)-N-(benzo[d]thiazol-5-yl)-1-(quinolin-6-ylsulfonyl)pyrrolidine-3-carboxamide], for which the IC50 was 352 nM and the “EC80 MIN” value is on record as 3%.
Turning to `Cn1nnc2cc(S(=O)(=O)N3CCC(C(=O)Nc4ccc5scnc5c4)CC3)ccc21` [Compound 28, N-(benzo[d]thiazol-5-yl)-1-((1-methyl-1H-benzo[d][1,2,3]triazol-5-yl)sulfonyl)piperidine-4-carboxamide], the IC50 is above 10000 nM and the “EC80 MIN” value was 9%.
For `O=C(Nc1ccc2scnc2c1)[C@@H]1CCN(S(=O)(=O)c2ccc(Cl)nc2)C1` [Compound 76, (R)-N-(benzo[d]thiazol-5-yl)-1-((6-chloropyridin-3-yl)sulfonyl)pyrrolidine-3-carboxamide] the same measures were above 10000 nM and 23%.
For `N#Cc1cc(S(=O)(=O)N2CCC(C(=O)Nc3ccc4scnc4c3)CC2)ccc1Cl` [Compound 9, N-(benzo[d]thiazol-5-yl)-1-((4-chloro-3-cyanophenyl)sulfonyl)piperidine-4-carboxamide] the same measures were above 10000 nM and 38%.
Regarding `Cc1nc2cc(NC(=O)C3CCN(S(=O)(=O)c4ccc5c(c4)CCO5)CC3)ccc2s1` [Compound 91, 1-((2,3-Dihydrobenzofuran-5-yl)Sulfonyl)-N-(2-Methylbenzo[d]thiazol-5-yl)Piperidine-4-Carboxamide], the IC50 was 138 nM and the “EC80 MIN” value was 17%.
For `O=C(Nc1ccc2scnc2c1)C1CCN(S(=O)(=O)c2ccsc2)CC1` [Compound 8, N-(benzo[d]thiazol-5-yl)-1-(thiophen-3-ylsulfonyl)piperidine-4-carboxamide] the same measures were above 10000 nM and 23%.
With `O=C(Nc1ccc2scnc2c1)C1CCN(S(=O)(=O)c2cc3c(cc2F)OCC3)CC1` [Compound 41, N-(benzo[d]thiazol-5-yl)-1-((6-fluoro-2,3-dihydrobenzofuran-5-yl)sulfonyl)piperidine-4-carboxamide], the IC50 was found to be 46 nM and the “EC80 MIN” value was determined as 2%.
In the case of `O=C(Nc1ccc2scnc2c1)[C@@H]1CCN(S(=O)(=O)c2ccc3c(c2)CCO3)C1` [Compound 24, (R)-N-(benzo[d]thiazol-5-yl)-1-((2,3-dihydrobenzofuran-5-yl)sulfonyl)pyrrolidine-3-carboxamide], the IC50 amounted to 32 nM and the “EC80 MIN” value is 2%.
Consider `Cc1nn(C)cc1S(=O)(=O)N1CCC(C)(C(=O)Nc2ccc3scnc3c2)CC1` [Compound 112, N-(benzo[d]thiazol-5-yl)-1-((1,3-dimethyl-1H-pyrazol-4-yl)sulfonyl)-4-methylpiperidine-4-carboxamide], for which the IC50 was above 10000 nM and the “EC80 MIN” value is 58%.
For `Cn1ncc(S(=O)(=O)N2CC[C@H](C(=O)Nc3ccc4scnc4c3)[C@@H](F)C2)c1Cl` (racemic) [Compound 159, trans-(rac)-N-(benzo[d]thiazol-5-yl)-1-((5-chloro-1-methyl-1H-pyrazol-4-yl)sulfonyl)-3-fluoropiperidine-4-carboxamide], the IC50 turned out to be 10 nM and the “EC80 MIN” value was 2%.
Turning to `O=C(Nc1ccc2scnc2c1)[C@H]1CCN(S(=O)(=O)c2cc3c(cc2F)OCC3)C1` [Compound 56, (S)-N-(benzo[d]thiazol-5-yl)-1-((6-fluoro-2.3-dihydrobenzofuran-5-yl)sulfonyl)pyrrolidine-3-carboxamide], the IC50 is 719 nM and the “EC80 MIN” value is 2%.
`O=C(Nc1ccc2scnc2c1)[C@@H]1CCN(S(=O)(=O)c2cc(I)c3c(c2)CCO3)C1` [Compound 74, (R)-N-(benzo[d]thiazol-5-yl)-1((7-iodo-2,3-dihydrobenzofuran-5-yl)sulfonyl)pyrrolidine-3-carboxamide]: the IC50 is 895 nM and the “EC80 MIN” value was found to be 2%.
For `Cc1noc2ncc(S(=O)(=O)N3CCC(C(=O)Nc4ccc5scnc5c4)CC3)cc12` [Compound 37, N-(benzo[d]thiazol-5-yl)-1-((3-methylisoxazolo[5,4-b]pyridin-5-yl)sulfonyl)piperidine-4-carboxamide], the IC50 was above 10000 nM and the “EC80 MIN” value amounted to 60%.
For `O=C(Nc1ccc2scnc2c1)[C@@H]1CCN(S(=O)(=O)c2ccc3c(c2Br)CCO3)C1` [Compound 59, (R)-N-(benzo[d]thiazol-5-yl)-1-((4-bromo-2,3-dihydrobenzofuran-5-yl)sulfonyl)pyrrolidine-3-carboxamide] the same measures were 487 nM and 2%.
As for `O=C(Nc1cnc2scnc2c1)C1CCN(S(=O)(=O)c2ccc3c(c2)CCO3)CC1` [Compound 102, 1-((2,3-dihydrobenzofuran-5-yl)sulfonyl)-N-(thiazolo[5,4-b]pyridin-6-yl)piperidine-4-carboxamide], the IC50 is above 10000 nM and the “EC80 MIN” value is on record as 56%.
As to `Cc1cc(S(=O)(=O)N2CC[C@@H](C(=O)Nc3ccc4scnc4c3)C2)cc2c1OCC2` [Compound 83, (R)-N-(benzo[d]thiazol-5-yl)-1-((7-methyl-2,3-dihydrobenzofuran-5-yl)sulfonyl)pyrrolidine-3-carboxamide], the IC50 worked out at 1460 nM and the “EC80 MIN” value was 3%.
Consider `O=C(Nc1ccc2scnc2c1)[C@H]1CCN(S(=O)(=O)c2cccc3nsnc23)C[C@@H]1F` (racemic) [Compound 81, trans-(rac)-1-(benzo[c][1,2,5]thiadiazol-4-ylsulfonyl)-N-(benzo[d]thiazol-5-yl)-3-fluoropiperidine-4-carboxamide], for which the IC50 came out at 500 nM and the “EC80 MIN” value is given as 5%.
The matching figures for `CC1(C)CN(S(=O)(=O)c2ccc3c(c2)CCO3)CCC1C(=O)Nc1ccc2scnc2c1` (stereo not shown) [Compound 138, N-(benzo[d]thiazol-5-yl)-1-((2,3-dihydrobenzofuran-5-yl)sulfonyl)-3,3-dimethylpiperidine-4-carboxamide]: above 10000 nM and 7%.
